Data as given in the NIST ThermoML archive (doi:10.1016/j.jct.2015.06.009).
± gives the expanded uncertainty stated by the source.

Experiments:
[1] = refractive index (Na D-line) (dimensionless); settings: 298.15 K; 101.33 kPa; Liquid; Standard Abbe refractometry
[2] = 101 kPa, Liquid; for speed of sound: Frequency=3 MHz, Sing-around technique in a fixed-path interferometer; for mass density: Vibrating tube method
[3] = xn = mol fraction of the nth substance listed; settings: 101 kPa, Liquid; for speed of sound: Frequency=3 MHz, Sing-around technique in a fixed-path interferometer; for mass density: Vibrating tube method

COC(C)(C)C [2-methoxy-2-methylpropane]
Settings | refractive index
[1] | 1.36648 ± 0.00031

[2]
Settings | mass density [kg/m3] | speed of sound [m/s]
298.15 K | 735.21 ± 0.16 | 1036.3 ± 1.1
308.15 K | 724.64 ± 0.16 | 990.46 ± 1.1
318.15 K | 714 ± 0.17 | 944.87 ± 1.1
328.15 K | 703.29 ± 0.17 | –

CCCCO [butan-1-ol]
Settings | refractive index
[1] | 1.39733 ± 0.00031

[2]
Settings | mass density [kg/m3] | speed of sound [m/s]
298.15 K | 805.73 ± 0.14 | 1240 ± 1.2
308.15 K | 798.07 ± 0.15 | 1206.6 ± 1.2
318.15 K | 790.37 ± 0.15 | 1173.4 ± 1.2
328.15 K | 782.58 ± 0.15 | 1140.4 ± 1.2

CCCCO [butan-1-ol] + COC(C)(C)C
[3], x2 = 0
Settings | mass density [kg/m3] | speed of sound [m/s]
298.15 K | 805.73 ± 0.14 | 1240 ± 1.2
308.15 K | 798.07 ± 0.15 | 1206.6 ± 1.2
318.15 K | 790.37 ± 0.15 | 1173.4 ± 1.2
328.15 K | 782.58 ± 0.15 | 1140.4 ± 1.2

CCCCO [butan-1-ol] + Cc1ccccc1
[3]
Settings | mass density, 298.15 K [kg/m3] | mass density, 308.15 K [kg/m3] | mass density, 318.15 K [kg/m3] | mass density, 328.15 K [kg/m3] | speed of sound, 298.15 K [m/s] | speed of sound, 308.15 K [m/s] | speed of sound, 318.15 K [m/s] | speed of sound, 328.15 K [m/s]
x2 = 0.2008 | 818.72 ± 0.14 | 810.48 ± 0.14 | 802.18 ± 0.14 | 793.77 ± 0.15 | 1248 ± 1.2 | 1212.2 ± 1.2 | 1176.5 ± 1.2 | 1141.2 ± 1.2
x2 = 0.4064 | 830.53 ± 0.14 | 821.82 ± 0.14 | 813.05 ± 0.14 | 804.18 ± 0.14 | 1255.5 ± 1.2 | 1217.6 ± 1.2 | 1180.1 ± 1.2 | 1143 ± 1.1
x2 = 0.5993 | 840.92 ± 0.13 | 831.87 ± 0.14 | 822.79 ± 0.14 | 813.62 ± 0.14 | 1263.8 ± 1.2 | 1224.6 ± 1.2 | 1185.7 ± 1.1 | 1147.5 ± 1.1
x2 = 0.7995 | 851.36 ± 0.13 | 842.08 ± 0.13 | 832.78 ± 0.14 | 823.42 ± 0.14 | 1277.3 ± 1.2 | 1237.1 ± 1.2 | 1197.3 ± 1.1 | 1158.2 ± 1.1

Cc1ccccc1 [toluene]
Settings | refractive index
[1] | 1.49393 ± 0.00031

[2]
Settings | mass density [kg/m3] | speed of sound [m/s]
298.15 K | 862.18 ± 0.13 | 1305.3 ± 1.2
308.15 K | 852.87 ± 0.13 | 1262.5 ± 1.2
318.15 K | 843.58 ± 0.13 | 1220.2 ± 1.2
328.15 K | 834.29 ± 0.13 | 1178.5 ± 1.1
